Data reported in article PMC10305181, “A VEGFB-Based Peptidomimetic Inhibits VEGFR2-Mediated PI3K/Akt/mTOR and PLCγ/ERK Signaling and Elicits Apoptotic, Antiangiogenic, and Antitumor Activities” (Pharmaceuticals, 2023).

Assays:
[1] = target: VEGFR2 extracellular domain (UniProt P35968); experiment: ELISA; ELISA-based displacement assay as in ref. 51 with modifications; 20 ng VEGFR2 extracellular domain; biotinylated VEGF (btVEGF165) displaced by peptide; C-VGB3 0-316 μM, L-VGB3 up to 3 mM; triplicate
[2] = body weight / tolerability of treated 4T1 tumor-bearing mice; format: in vivo; conditions: 0.2 mg·kg^−1 i.v. once every 2 days
Description: (§1) Figure 2 Loop formation is important for the antitumor activity of VGB3. (A) To investigate the efficacy of VGB3 peptides in vivo 13 days after transplantation of a 4T1 murine MCT into female BALB/c mice (the tumor volume ~150 mm^3), the treatment groups received 0.2 mg·kg^−1 (once every 2 days, i.v.) of either the C-VGB3 or L-VGB3 and the control group received PBS for 20 days. Error bars denote ± SEM. n = 6; **** p < 0.0001, ns = not significant; two-way ANOVA. (B) Investigation of C-VGB3 and L-VGB3 effects on mice weight. […] (C,D) Immunohistochemical (IHC) analyses of CD31 and Ki67 for the C-VGB3-, L-VGB3- and PBS-treated tumors. For IHC staining, the sections of tumor tissues were incubated with the primary mouse monoclonal antibodies for CD31 (1:2000 (v/v)) and Ki67 (5 µg·mL^−1). […] Photographs were taken at 40× magnification. Error bars denote ± SEM. n = 3; * 0.02 ≤ p ≤ 0.04, ns = not significant; one-way ANOVA.
The antitumor efficacy of the peptides was investigated as described previously. Thirteen days after implanting, tumor (~150 mm^3)-bearing mice were grouped randomly into control and treated animals (6/group). From day 13 to day 33, the treatment group received cyclic or linear VGB3 (0.2 mg·kg^−1), whereas the control group received an equal volume of PBS (i.v., once every two days). The volume of tumors was calculated as 0.52 × length × width^2. In addition, changes in the weight of animals were recorded every 2 days.

HUVE and 4T1 cell lines = experiment: MTT assay, HUVE and 4T1 cell lines (linear vs cyclic peptide, not separated); format: cell-based; conditions: cell line not specified at the place; 0–1.81 μM, 24 and 48 h
Description: The effects of C-VGB3 and L-VGB3 on the cell survival of HUVE and 4T1 cell lines were investigated using the MTT assay, as previously described, with some modifications. Cells were incubated with (0–1.81 μM) or without the peptide in the presence (20 ng·mL^−1) or in the absence of VEGF (Sigma-Aldrich, St. Louis, MO, USA). After 24 and 48 h of incubation at 37 °C, the absorbance at 570 nm was recorded using an ELISA plate reader (Space Fax 2100, Awareness, Palm City, FL, USA). The tests were repeated three times.

Ki67-positive cells = experiment: Ki67 immunohistochemistry of 4T1 tumors (proliferation); format: in vivo, murine; conditions: 0.2 mg·kg^−1 i.v.; n = 3
Description: as §1
For immunohistochemistry staining, deparaffinized tumor sections were incubated overnight at 4 °C with mouse monoclonal primary anti-Ki67 (5 µg·mL^−1) or anti-CD31 (1:2000 (v/v)). The antigens were detected using 3,3-diaminobenzidine. All images were captured and analyzed with an Olympus BX51 microscope (Olympus America, New York, NY, USA).

[3] = test system: 4T1 murine MCT in female BALB/c mice; format: in vivo; conditions: 0.2 mg·kg^−1 i.v. once every 2 days, day 13 to 33; n = 6
Description: as §1
The antitumor efficacy of the peptides was investigated as described previously. Thirteen days after implanting, tumor (~150 mm^3)-bearing mice were grouped randomly into control and treated animals (6/group). […] The volume of tumors was calculated as 0.52 × length × width^2. In addition, changes in the weight of animals were recorded every 2 days.

[4] = test system: extracellular domain of VEGFR2 (KDR); experiment: ELISA-based displacement (competition binding) of biotinylated VEGF from VEGFR2
Description: Figure 3 The binding affinity of C-VGB3 to VEGFR2. (A) ELISA-based displacement assay. The gradient concentrations of C-VGB3 (0, 0.316, 1, 3.16, 10, 31.6, 100, and 316 μM) were used in the assay. […] Error bars denote ± SEM. n = 3; ** p = 0.001, *** p = 0.0001, **** p < 0.0001, ns = not significant; one-way ANOVA. (B) A three-dimensional (produced by UCSF chimera software version 1.12) and a two-dimensional representation (produced by LigPlot software) of interactions in the C-VGB3/VEGFR2 complex is shown on the left and the right, respectively.
A displacement assay was conducted as reported previously with some modifications, including using 20 ng of the VEGFR2 extracellular domains (R&D Systems, Minneapolis, MN, USA). Peptide compounds were assayed three times per experiment.
Figure S6. Evaluating the binding capability of L-VGB3 to VEGFR2
(A) ELISA-based displacement assay. The gradient concentrations of L-VGB3 (3.16, 10, […]
to the extracellular domain of VEGFR2 at applied concentrations. (B) Two-dimensional representation of interactions (produced by LigPlot software) in L-VGB3/VEGFR2 […]

Sequence of UniProt P35968 (P35968 20-764): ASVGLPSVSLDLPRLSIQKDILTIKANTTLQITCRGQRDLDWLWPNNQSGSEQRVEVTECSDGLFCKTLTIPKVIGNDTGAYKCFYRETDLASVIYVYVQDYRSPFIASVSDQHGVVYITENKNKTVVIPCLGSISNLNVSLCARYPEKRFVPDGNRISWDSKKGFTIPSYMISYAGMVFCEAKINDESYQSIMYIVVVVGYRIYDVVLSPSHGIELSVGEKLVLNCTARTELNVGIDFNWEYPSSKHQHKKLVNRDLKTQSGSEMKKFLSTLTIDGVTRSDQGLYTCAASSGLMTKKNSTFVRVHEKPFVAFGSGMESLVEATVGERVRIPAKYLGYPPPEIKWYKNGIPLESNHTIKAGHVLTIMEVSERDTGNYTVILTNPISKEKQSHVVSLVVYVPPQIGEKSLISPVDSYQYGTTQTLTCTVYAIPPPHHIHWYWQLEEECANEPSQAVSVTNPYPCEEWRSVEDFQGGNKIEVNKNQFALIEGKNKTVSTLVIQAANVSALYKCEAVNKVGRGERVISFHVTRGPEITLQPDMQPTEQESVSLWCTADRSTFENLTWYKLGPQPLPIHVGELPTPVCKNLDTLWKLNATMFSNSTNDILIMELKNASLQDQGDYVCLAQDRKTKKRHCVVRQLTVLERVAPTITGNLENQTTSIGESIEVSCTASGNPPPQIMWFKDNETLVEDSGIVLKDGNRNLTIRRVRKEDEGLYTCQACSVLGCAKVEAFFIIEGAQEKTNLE

Substance | percent displacement of btVEGF165 at 100 μM C-VGB3 [1] | toxicity at this dosage (weight gain) ([2]; three weeks) | mice weight vs control groups ([2]; two-way ANOVA) | antiproliferative property (HUVE and 4T1 cell lines) | decrease in Ki67-positive cells, in words (Ki67-positive cells) | inhibition of 4T1 MCT (tumor growth), in words [3] | binding to VEGFR2 extracellular domain ([4]; 3 mM, competition binding assay) | binding to VEGFR2 extracellular domain ([4]; 3.16-3160 μM, ELISA-based displacement assay)
C-VGB3 (cyclic VGB3) (peptide) | 58% |  |  |  |  |  |  | 
H-ECRPPDDGLC-OH (cysteine pairing not given here) [L-VGB3, linear structure of VGB3] |  | not toxic | no significant differences | abolished | ineffective | no effect | no measurable binding | no binding
